Patent US20170369470A1, “Cyclic Compounds and Uses Thereof” (Karyopharm Therapeutics Inc., priority 2014, published 2017)

Columns and labels:
Format in all cases: cell-based
MS751 cells = experiment: MTT cell proliferation assay, MS751 cells; conditions: MS751 cells (human cervix squamous cell carcinoma metastasis); incubation approximately 64-72 hours; read-out: MTT Assay IC50 MS 751
Method: (§1) The MTT cell proliferation assay was used to study the cytotoxic properties of the compounds. The assay was performed according to the method described by Roche Molecular Biochemicals, with minor modifications. The assay is based on the cleavage of the tetrazolium salt, MTT, in the presence of an electron-coupling reagent. The water-insoluble formazan salt produced must be solubilized in an additional step. Cells grown in a 96-well tissue culture plate were incubated with the MTT solution for approximately 4 hours. After this incubation period, a water-insoluble formazan dye formed. After solubilization, the formazan dye was quantitated using a scanning multi-well spectrophotometer (ELISA reader). […] The cells were seeded at 5,000-10,000 cells in each well of 96-well plate in 100 μL of fresh culture medium and were allowed to attach overnight. The stock solutions of the compounds were diluted in 100 μL cell culture medium to obtain eight concentrations of each test compound, ranging from 1 nM to 30 μM. […] All optical densities were measured at 490 nm using a Vmax Kinetic Microplate Reader (Molecular Devices). In most cases, the assay was performed in duplicate and the results were presented as a mean percent inhibition to the negative control±SE. The following formula was used to calculate the percent of inhibition: Inhibition (%)=(1−(ODo/OD))×100.
(§2) The compounds were tested against MS751, Z138 and 3T3 cells. The MS751 cell line is derived from a metastasis to lymph node of human cervix from a patient diagnosed with squameous cell carcinoma of the cervix. The Z138 cell line is a mature B-cell acute lymphoblastic leukemia cell line derived from a patient with chronic lumphocytic leukemia. 3T3 cells are standard fibroblast cells; they were originally isolated from Swiss mouse embryo tissue.

Z138 cells = experiment: MTT cell proliferation assay, Z138 cells; conditions: Homo sapiens, Z-138; Z138 cells (mantle cell lymphoma line); incubation approximately 64-72 hours
Method: as §1, §2

3T3 cells = experiment: MTT cell proliferation assay, 3T3 cells; conditions: NIH3T3; 3T3 fibroblast cells (Swiss mouse embryo); incubation approximately 64-72 hours
Method: as §1, §2

Compound | IC50 (MS751 cells) [µM] | IC50 (Z138 cells) [µM] | IC50 (3T3 cells) [µM]
Nc1ccc(/C=C/C(=O)NCc2nc3cc(-c4ccc(C(=O)N5CCC(F)(F)CC5)cn4)cc(C(F)(F)F)c3[nH]2)cn1 [compound 530, (E)-3-(6-aminopyridin-3-yl)-N-((5-(5-(4,4-difluoropiperidine-1-carbonyl)pyridin-2-yl)-7-(trifluoromethyl)-1H-benzo[d]imidazol-2-yl)methyl)acrylamide] | > 10 | > 10 | > 10
Cn1c(CNC(=O)/C=C/c2ccc(N)nc2)cc2cc(-c3ccc(C(=O)N4CCC(F)(F)CC4)cn3)cc(C(F)(F)F)c21 [compound 502, (E)-3-(6-aminopyridin-3-yl)-N-((5-(5-(4,4-difluoropiperidine-1-carbonyl)pyridin-2-yl)-1-methyl-7-(trifluoromethyl)-1H-indol-2-yl)methyl)acrylamide] | > 10 | > 10 | > 10
CC1(C)CN(C(=O)c2ccc(-c3cc(C(F)(F)F)c4sc(CNC(=O)/C=C/c5ccc(N)nc5)cc4c3)cc2)CCO1 [compound 526, (E)-3-(6-aminopyridin-3-yl)-N-((5-(4-(2,2-dimethylmorpholine-4-carbonyl)phenyl)-7-(trifluoromethyl)benzo[b]thiophen-2-yl)methyl)acrylamide] | 1 to 5 | < 1 | > 10
Nc1ccc(/C=C/C(=O)NCc2cc3cc(-c4ccc(C(=O)N5CCC(F)(F)C5)cn4)cc(C(F)(F)F)c3s2)cn1 [compound 510, (E)-3-(6-aminopyridin-3-yl)-N-((5-(5-(3,3-difluoropyrrolidine-1-carbonyl)pyridin-2-yl)-7-(trifluoromethyl)benzo[b]thiophen-2-yl)methyl)acrylamide] | 1 to 5 | 1 to 5 | > 10
Nc1ccc(/C=C/C(=O)NCc2nc3cc(-c4ccc(C(=O)N5CCC(F)(F)CC5)cc4)cc(-c4ccc(F)cc4)c3s2)cn1 [compound 535, (E)-3-(6-aminopyridin-3-yl)-N-((5-(4-(4,4-difluoropiperidine-1-carbonyl)phenyl)-7-(4-fluorophenyl)benzo[d]thiazol-2-yl)methyl)acrylamide] | 1 to 5 | 1 to 5 | > 10
Nc1ccc(/C=C/C(=O)NCc2cc3cc(-c4ccc(C(=O)N5CCOCC5)cn4)cc(C(F)(F)F)c3s2)cn1 [compound 506, (E)-3-(6-aminopyridin-3-yl)-N-((5-(5-(morpholine-4-carbonyl)pyridin-2-yl)-7-(trifluoromethyl)benzo[b]thiophen-2-yl)methyl)acrylamide] | 1 to 5 | 1 to 5 | > 10
CC1(C)COCCN1C(=O)c1ccc(-c2cc(C(F)(F)F)c3sc(CNC(=O)/C=C/c4ccc(N)nc4)cc3c2)cc1 [compound 523, (E)-3-(6-aminopyridin-3-yl)-N-((5-(4-(3,3-dimethylmorpholine-4-carbonyl)phenyl)-7-(trifluoromethyl)benzo[b]thiophen-2-yl)methyl)acrylamide] | 1 to 5 | 1 to 5 | > 10
Nc1ccc(/C=C/C(=O)NCc2cc3cc(-c4ccc(C(=S)N5CCC(F)(F)CC5)cn4)cc(C(F)(F)F)c3s2)cn1 [compound 504, (E)-3-(6-aminopyridin-3-yl)-N-((5-(5-(4,4-difluoropiperidine-1-carbonothioyl)pyridin-2-yl)-7-(trifluoromethyl)benzo[b]thiophen-2-yl)methyl)acrylamide] | < 1 | < 1 | > 10
Nc1ccc(/C=C/C(=O)NCc2cc3cc(-c4ccc(C(=O)N5CC(F)(F)C5)cc4)cc(C(F)(F)F)c3s2)cn1 [compound 524, (E)-3-(6-aminopyridin-3-yl)-N-((5-(4-(3,3-difluoroazetidine-1-carbonyl)phenyl)-7-(trifluoromethyl)benzo[b]thiophen-2-yl)methyl)acrylamide] | > 10 | > 10 | > 10
